Results reported in patent US12162893B2 (Erasca, Inc., priority 2020, dated 2024).

Molecular target: T1, mutant G12C K-RAS (Homo sapiens, UniProt P01116, G12C)
T1 construct: made in house; host or cells: E. coli BL21
Test: covalent adduct formation (CAF) with mutant G12C K-RAS
Type: binding
Conditions: for % CAF @ 10 μM,1 h: Table 6; for % CAF (60 min): after 60 minutes at 10 micromolar
Procedure: Embodiments disclosed herein are further illustrated by the following examples in Tables 1-4 and the Examples hereinbelow. The Tables indicate the compound number, structure, the observed mass spectral molecular weight peak, and covalent adduct formation (CAF) with a mutant G12C K-RAS after 60 minutes at a concentration of 10 micromolar.

[1] = Table 1, Pyrimidone Core-Morpholine Unsubstituted
[2] = Table 2, Pyrimidone Core-Morpholine Substituted

Row | Compound | % CAF @ 10 μM,1 h | other results
1 | C=CC(=O)N1C[C@H](C)N(c2nc(=O)n3c4c(c(-c5c(O)cccc5F)c(Cl)cc24)OC[C@@H]3Cn2ccnc2)C[C@H]1C (atropisomer, axis not shown) [Example 248, (3S)-3-((1H-imidazol-1-yl)methyl)-7-((2S,5R)-4-acryloyl-2,5-dimethylpiperazin-1-yl)-9-chloro-10-(2-fluoro-6-hydroxyphenyl)-2H-[1,4]oxazino[2,3,4-ij]quinazolin-5(3H)-one] | 2.3% | –
2 | C=CC(=O)N1CCN(c2nc(=O)n3c4c(c(-c5c(C)ccc6[nH]ncc56)c(Cl)cc24)OCC3)CC1 [Example 7, (R)-7-(4-acryloylpiperazin-1-yl)-9-chloro-10-(5-methyl-1H-indazol-4-yl)-2H-[1,4]oxazino[2,3,4-ij]quinazolin-5(3H)-one] | – | % CAF (60 min) [1]: 79.6%
3 | C=CC(=O)N1CCN(c2nc(=O)n3c4c(c(-c5c(O)cccc5F)c(Cl)cc24)OCC3)CC1 [Example 5, (S)-7-(4-acryloylpiperazin-1-yl)-9-chloro-10-(2-fluoro-6-hydroxyphenyl)-2H-[1,4]oxazino[2,3,4-ij]quinazolin-5(3H)-one] | – | % CAF (60 min) [1]: 87.6%
4 | C=CC(=O)N1C[C@H](C)N(c2nc(=O)n3c4c(c(-c5cccc6ccccc56)c(Cl)cc24)OC[C@H]3Cn2cccn2)C[C@H]1C (atropisomer, axis not shown) [Example 292, (3R,10S)-3-((1H-pyrazol-1-yl)methyl)-7-((2S,5R)-4-acryloyl-2,5-dimethylpiperazin-1-yl)-9-chloro-10-(naphthalen-1-yl)-2,3-dihydro-5H-[1,4]oxazino[2,3,4-ij]quinazolin-5-one] | 95% | –
5 | C=CC(=O)N1CCN(c2nc(=O)n3c4c(c(-c5ccc(F)cc5F)cc(CC#N)c24)OCC3)CC1 [Example 289, 2-(7-(4-acryloylpiperazin-1-yl)-10-(2,4-difluorophenyl)-5-oxo-2,3-dihydro-5H-[1,4]oxazino[2,3,4-ij]quinazolin-8-yl)acetonitrile] | 13.5% | –
6 | C=CC(=O)N1C[C@H](C)N(c2nc(=O)n3c4c(c(-c5c(O)cccc5F)c(Cl)cc24)OC[C@@H]3CO)C[C@H]1C [Example 28, (3S,10R)-7-((2S,5R)-4-acryloyl-2,5-dimethylpiperazin-1-yl)-9-chloro-10-(2-fluoro-6-hydroxyphenyl)-3-(hydroxymethyl)-2H-[1,4]oxazino[2,3,4-ij]quinazolin-5(3H)-one] | – | % CAF (60 min) [2]: 1.3%
7 | C=CC(=O)N1C[C@H](C)N(c2nc(=O)n3c4c(c(-c5c(O)cccc5F)c(Cl)cc24)OC[C@@H]3CN(C)CC(F)(F)F)C[C@H]1C (atropisomer, axis not shown) [Example 240, (3S,10S)-7-((2S,5R)-4-acryloyl-2,5-dimethylpiperazin-1-yl)-9-chloro-10-(2-fluoro-6-hydroxyphenyl)-3-((methyl(2,2,2-trifluoroethyl)amino)methyl)-2H-[1,4]oxazino[2,3,4-ij]quinazolin-5(3H)-one] | 82.1% | –
8 | C=CC(=O)N1C[C@H](C)N(c2nc(=O)n3c4c(c(-c5c(O)cccc5F)c(Cl)cc24)OC[C@@H]3CCCN2CCOCC2)C[C@H]1C (atropisomer, axis not shown) [Example 226, (3S,10S)-7-((2S,5R)-4-acryloyl-2,5-dimethylpiperazin-1-yl)-9-chloro-10-(2-fluoro-6-hydroxyphenyl)-3-(3-morpholinopropyl)-2,3-dihydro-5H-[1,4]oxazino[2,3,4-ij]quinazolin-5-one] | 97.8% | –
9 | C=CC(=O)N1CCN(c2nc(=O)n3c4c(c(-c5c(O)cccc5F)c(Cl)cc24)OC[C@H]3CO)[C@@H](C)C1 [Example 22, (3R,10S)-7-((S)-4-acryloyl-2-methylpiperazin-1-yl)-9-chloro-10-(2-fluoro-6-hydroxyphenyl)-3-(hydroxymethyl)-2H-[1,4]oxazino[2,3,4-ij]quinazolin-5(3H)-one] | – | % CAF (60 min) [2]: 87.6%

Second part, led by results:

Row | % CAF @ 10 μM,1 h | Compound | other results
10 | 89.8% | C=CC(=O)N1C[C@H](C)N(c2nc(=O)n3c4c(c(-c5ccc(F)cc5F)c(Cl)cc24)OC[C@H]3CCCN2C[C@H]3C[C@@H]2CO3)C[C@H]1C [Example 315, (3R)-3-(3-((1R,4R)-2-oxa-5-azabicyclo[2.2.1]heptan-5-yl)propyl)-7-((2S,5R)-4-acryloyl-2,5-dimethylpiperazin-1-yl)-9-chloro-10-(2,4-difluorophenyl)-2,3-dihydro-5H-[1,4]oxazino[2,3,4-ij]quinazolin-5-one] | –
11 | 90.5% | C=CC(=O)N1C[C@H](C)N(c2nc(=O)n3c4c(c(-c5ccc(F)cc5F)c(Cl)cc24)OC[C@H]3COC2CCN(C)CC2)C[C@H]1C [Example 297, (3R)-7-((2S,5R)-4-acryloyl-2,5-dimethylpiperazin-1-yl)-9-chloro-10-(2,4-difluorophenyl)-3-(((1-methylpiperidin-4-yl)oxy)methyl)-2H-[1,4]oxazino[2,3,4-ij]quinazolin-5(3H)-one] | –
12 | 66.1% | C=CC(=O)N1C[C@H](C)N(c2nc(=O)n3c4c(c(-c5ccc(F)cc5F)c(Cl)cc24)OC[C@@H]3COC2CCN(C)C2)C[C@H]1C (stereo in doubt) [Example 313, (3S)-7-((2S,5R)-4-acryloyl-2,5-dimethylpiperazin-1-yl)-9-chloro-10-(2,4-difluorophenyl)-3-((((S)-1-methylpyrrolidin-3-yl)oxy)methyl)-2,3-dihydro-5H-[1,4]oxazino[2,3,4-ij]quinazolin-5-one] | –
13 | 78.5% | C=CC(=O)N1C[C@H](C)N(c2nc(=O)n3c4c(c(-c5ccc(F)cc5F)c(Cl)cc24)OC[C@@H]3CN(C)CC(F)(F)F)C[C@H]1C [Example 237, (3S)-7-((2S,5R)-4-acryloyl-2,5-dimethylpiperazin-1-yl)-9-chloro-10-(2,4-difluorophenyl)-3-((methyl(2,2,2-trifluoroethyl)amino)methyl)-2H-[1,4]oxazino[2,3,4-ij]quinazolin-5(3H)-one] | –
14 | 71.8% | C=CC(=O)N1C[C@H](C)N(c2nc(=O)n3c4c(c(-c5ccc(F)cc5F)c(Cl)cc24)OC[C@H]3CCCN2CC(C(=O)NC3CC3)C2)C[C@H]1C [Example 273, 1-(3-((3R)-7-((2S,5R)-4-acryloyl-2,5-dimethylpiperazin-1-yl)-9-chloro-10-(2,4-difluorophenyl)-5-oxo-2,3-dihydro-5H-[1,4]oxazino[2,3,4-ij]quinazolin-3-yl)propyl)-N-cyclopropylazetidine-3-carboxamide] | –
15 | 91.2% | C=CC(=O)N1C[C@H](C)N(c2nc(=O)n3c4c(c(-c5ccc(F)cc5F)c(Cl)cc24)OC[C@@H]3CCCN2CCOCC2)C[C@H]1C [Example 215, (3S)-7-((2S,5R)-4-acryloyl-2,5-dimethylpiperazin-1-yl)-9-chloro-10-(2,4-difluorophenyl)-3-(3-morpholinopropyl)-2,3-dihydro-5H-[1,4]oxazino[2,3,4-ij]quinazolin-5-one] | –
16 | 97.5% | C=CC(=O)N1C[C@H](C)N(c2nc(=O)n3c4c(c(-c5ccc(F)cc5F)c(Cl)cc24)OC[C@H]3CCCN2CC(F)C2)C[C@H]1C [Example 279, (3R)-7-((2S,5R)-4-acryloyl-2,5-dimethylpiperazin-1-yl)-9-chloro-10-(2,4-difluorophenyl)-3-(3-(3-fluoroazetidin-1-yl)propyl)-2,3-dihydro-5H-[1,4]oxazino[2,3,4-ij]quinazolin-5-one] | –
